Results on 19 compounds are retold here after patent publication US10029992B2, “Diaminotriazine compounds and their use as herbicides” (BASF SE, priority 2014, dated 2018).

Structures are written as SMILES.

Common to all, as to experiment: Greenhouse experiment, pre-emergence treatment
Common to all, as to conditions: pre-emergence method

Assay [1] has as its system ECHCG. The format is in vivo, Echinochloa crus-galli. An excerpt:
(§1) The culture containers used were plastic flowerpots containing loamy sand with approximately 3.0% of humus as the substrate. The seeds of the test plants were sown separately for each species.
(§2) For the pre-emergence treatment, the active ingredients, which had been suspended or emulsified in water, were applied directly after sowing by means of finely distributing nozzles. The containers were irrigated gently to promote germination and growth and subsequently covered with transparent plastic hoods until the plants had rooted. This cover caused uniform germination of the test plants, unless this had been impaired by the active ingredients.
(§3) Depending on the species, the plants were kept at 10-25° C. or 20-35° C., respectively.
(§4) The test period extended over 2 to 4 weeks. During this time, the plants were tended, and their response to the individual treatments was evaluated.
(§5) Evaluation was carried out using a scale from 0 to 100. 100 means no emergence of the plants, or complete destruction of at least the aerial moieties, and 0 means no damage, or normal course of growth. A moderate herbicidal activity is given at values of at least 60, a good herbicidal activity is given at values of at least 70, and a very good herbicidal activity is given at values of at least 85.
(§6) The plants used in the greenhouse experiments were of the following species: […]

Assay [2] relates to SETFA. The format is in vivo, Setaria faberi. The text has this:
(§7) The seeds of the test plants were sown separately for each species. For the pre-emergence treatment, the active ingredients, which had been suspended or emulsified in water, were applied directly after sowing by means of finely distributing nozzles. The containers were irrigated gently to promote germination and growth and subsequently covered with transparent plastic hoods until the plants had rooted. This cover caused uniform germination of the test plants, unless this had been impaired by the active ingredients. Depending on the species, the plants were kept at 10-25° C. or 20-35° C., respectively. The test period extended over 2 to 4 weeks. During this time, the plants were tended, and their response to the individual treatments was evaluated. Evaluation was carried out using a scale from 0 to 100. 100 means no emergence of the plants, or complete destruction of at least the aerial moieties, and 0 means no damage, or normal course of growth. A moderate herbicidal activity is given at values of at least 60, a good herbicidal activity is given at values of at least 70, and a very good herbicidal activity is given at values of at least 85. […] [table]

Assay [3] has as its system ABUTH. The format is in vivo, Abutilon theophrasti.
Description: as §1, §2, §3, §4, §5, §6

The subject of assay [4] is APESV. The format is in vivo, Apera spica-venti.
Description: as §1, §2, §3, §4, §5, §6

The subject of assay [5] is AMARE. The format is in vivo, Amaranthus retroflexus.
Description: as §7

For `Cc1cc(C)cc(Oc2cccc(F)c2Nc2nc(N)nc(C(C)F)n2)c1` (stereo not shown) [Example 11], the “herbicidal activity against ECHCG” value in assay [1] (application rate 0.125 kg/ha) is listed as “very good (a very good herbicidal activity is given at values of at least 85)”. In assay [2] (application rate 0.125 kg/ha), the “herbicidal activity against SETFA” value is listed as “very good (a very good herbicidal activity is given at values of at least 85)”. The “herbicidal activity against ABUTH” value in assay [3] (application rate 0.125 kg/ha) is reported as “very good (a very good herbicidal activity is given at values of at least 85)”.
Turning to `COC(C)c1nc(N)nc(Nc2c(F)cccc2Oc2cc(C)cc(C)c2)n1` (stereo not shown) [Example 39], the “herbicidal activity against APESV” value in assay [4] (application rate 1000 g/ha) is recorded as “very good (a very good herbicidal activity is given at values of at least 85)”. Moreover, the “herbicidal activity against ABUTH” value in assay [3] (application rate 1000 g/ha) is given as “very good (a very good herbicidal activity is given at values of at least 85)”.
Turning to `CC(C)(F)c1nc(N)nc(Nc2c(F)cccc2Oc2cc(Cl)cc(Cl)c2)n1` [Example 13], the “herbicidal activity against APESV” value in assay [4] (application rate 0.25 kg/ha) is reported as “very good (a very good herbicidal activity is given at values of at least 85)”. For the same compound, in assay [2] (application rate 0.25 kg/ha), the “herbicidal activity against SETFA” value is “very good (a very good herbicidal activity is given at values of at least 85)”. Also, in assay [5] (application rate 0.25 kg/ha), the “herbicidal activity against AMARE” value is on record as “very good (a very good herbicidal activity is given at values of at least 85)”.
As to `CCc1cccc(Oc2cccc(F)c2Nc2nc(N)nc(C(C)(C)F)n2)c1` [Example 90], the “herbicidal activity against APESV” value in assay [4] (application rate 500 g/ha) was “very good (a very good herbicidal activity is given at values of at least 85)”. The “herbicidal activity against ECHCG” value in assay [1] (application rate 500 g/ha) is “very good (a very good herbicidal activity is given at values of at least 85)”. The “herbicidal activity against AMARE” value in assay [5] (application rate 500 g/ha) is recorded as “very good (a very good herbicidal activity is given at values of at least 85)”.
Regarding `Cc1cc(C)cc(Oc2cccc(F)c2Nc2nc(N)nc(C3(F)CCCC3)n2)c1` [Example 96], the “herbicidal activity against ECHCG” value in assay [1] (application rate 500 g/ha) was “very good (a very good herbicidal activity is given at values of at least 85)”. For the same compound, in assay [2] (application rate 500 g/ha), the “herbicidal activity against SETFA” value is listed as “very good (a very good herbicidal activity is given at values of at least 85)”. In addition, the “herbicidal activity against ABUTH” value in assay [3] (application rate 500 g/ha) was “very good (a very good herbicidal activity is given at values of at least 85)”.
As to `Cc1cc(C)cc(Oc2cccc(C#N)c2Nc2nc(N)nc(C(C)(C)F)n2)c1` [Example 100], the “herbicidal activity against APESV” value in assay [4] (application rate 250 g/ha) is given as “very good (a very good herbicidal activity is given at values of at least 85)”. In addition, the “herbicidal activity against ECHCG” value in assay [1] (application rate 250 g/ha) is listed as “very good (a very good herbicidal activity is given at values of at least 85)”. Besides, in assay [3] (application rate 250 g/ha), the “herbicidal activity against ABUTH” value was “good (a good herbicidal activity is given at values of at least 70)”.
Consider `CC(C)(F)c1nc(N)nc(Nc2c(F)c(F)cc(Oc3ccccc3)c2F)n1` [Example 42], for which the “herbicidal activity against ECHCG” value in assay [1] (application rate 0.5 kg/ha) is “good to very good”. Moreover, in assay [5] (application rate 0.5 kg/ha), the “herbicidal activity against AMARE” value is reported as “good to very good”. Also, the “herbicidal activity against ABUTH” value in assay [3] (application rate 0.5 kg/ha) is on record as “good to very good”.
`Cc1cc(C)cc(Oc2cccc(F)c2Nc2nc(N)nc(C3CCCCC3)n2)c1` [Example 15]: the “herbicidal activity against ABUTH” value in assay [3] (application rate 1000 g/ha) was “very good (a very good herbicidal activity is given at values of at least 85)”.
For `CC(C)(F)c1nc(N)nc(Nc2c(F)cccc2Oc2cccc(OC(F)(F)F)c2)n1` [Example 97], the “herbicidal activity against ECHCG” value in assay [1] (application rate 500 g/ha) is listed as “very good (a very good herbicidal activity is given at values of at least 85)”. Also, the “herbicidal activity against SETFA” value in assay [2] (application rate 500 g/ha) is recorded as “very good (a very good herbicidal activity is given at values of at least 85)”. Moreover, the “herbicidal activity against ABUTH” value in assay [3] (application rate 500 g/ha) is reported as “very good (a very good herbicidal activity is given at values of at least 85)”.
Take `Cc1cc(OCC2CCC2)cc(Oc2cccc(F)c2Nc2nc(N)nc(C(C)(C)F)n2)c1` [Example 83]: the “herbicidal activity against APESV” value in assay [4] (application rate 250 g/ha) is on record as “good (a good herbicidal activity is given at values of at least 70)”. The “herbicidal activity against ECHCG” value in assay [1] (application rate 250 g/ha) is recorded as “good (a good herbicidal activity is given at values of at least 70)”. In addition, the “herbicidal activity against AMARA” value in assay [5] (application rate 250 g/ha) is given as “very good (a very good herbicidal activity is given at values of at least 85)”.
Take `CC(C)(F)c1nc(N)nc(Nc2c(F)cccc2Oc2cccc(F)c2)n1` [Example 10]: in assay [4] (application rate 0.5 kg/ha), the “herbicidal activity against APESV” value is reported as “very good (a very good herbicidal activity is given at values of at least 85)”. Moreover, the “herbicidal activity against ECHCG” value in assay [1] (application rate 0.5 kg/ha) is recorded as “very good (a very good herbicidal activity is given at values of at least 85)”. The “herbicidal activity against AMARE” value in assay [5] (application rate 0.5 kg/ha) was “very good (a very good herbicidal activity is given at values of at least 85)”.
Regarding `Cc1cc(Cl)cc(Oc2cccc(F)c2Nc2nc(N)nc(C(C)(C)F)n2)c1` [Example 28], in assay [4] (application rate 0.25 kg/ha), the “herbicidal activity against APESV” value was “very good (a very good herbicidal activity is given at values of at least 85)”. Further, the “herbicidal activity against SETFA” value in assay [2] (application rate 0.25 kg/ha) is reported as “very good (a very good herbicidal activity is given at values of at least 85)”. In assay [3] (application rate 0.25 kg/ha), the “herbicidal activity against ABUTH” value is “very good (a very good herbicidal activity is given at values of at least 85)”.
Turning to `Cc1cccc(Oc2cccc(F)c2Nc2nc(N)nc(C(C)(C)F)n2)c1` [Example 7], in assay [1] (application rate 0.5 kg/ha), the “herbicidal activity against ECHCG” value is “good to very good”. For the same compound, the “herbicidal activity against AMARE” value in assay [5] (application rate 0.5 kg/ha) is “good to very good”. Also, in assay [3] (application rate 0.5 kg/ha), the “herbicidal activity against ABUTH” value is recorded as “good to very good”.
As for `Cc1cccc(N(C)c2cccc(F)c2Nc2nc(N)nc(C(C)(C)F)n2)c1` [Example 103], in assay [1] (application rate 500 g/ha), the “herbicidal activity against ECHCG” value is “very good (a very good herbicidal activity is given at values of at least 85)”. Moreover, in assay [2] (application rate 500 g/ha), the “herbicidal activity against SEFTA” value is listed as “very good (a very good herbicidal activity is given at values of at least 85)”. Moreover, in assay [5] (application rate 500 g/ha), the “herbicidal activity against AMARE” value was “very good (a very good herbicidal activity is given at values of at least 85)”.
`Cc1cc(C)cc(Oc2cccc(F)c2Nc2nc(N)nc(C(C)(C)F)n2)c1` [Example 5]: the “herbicidal activity against ECHCG” value in assay [1] (application rate 0.25 kg/ha) is given as “very good (a very good herbicidal activity is given at values of at least 85)”. Also, the “herbicidal activity against SETFA” value in assay [2] (application rate 0.25 kg/ha) is on record as “very good (a very good herbicidal activity is given at values of at least 85)”. The “herbicidal activity against ABUTH” value in assay [3] (application rate 0.25 kg/ha) was “very good (a very good herbicidal activity is given at values of at least 85)”.
On to `Cc1cc(C)cc(Sc2cccc(F)c2Nc2nc(N)nc(C(C)(C)F)n2)c1` [Example 2], for which the “herbicidal activity against ABUTH” value in assay [3] (application rate 1000 g/ha) was “good (a good herbicidal activity is given at values of at least 70)”.
As for `CC(C)c1cccc(Oc2cccc(F)c2Nc2nc(N)nc(C(C)(C)F)n2)c1` [Example 89], the “herbicidal activity against APESV” value in assay [4] (application rate 500 g/ha) was “very good (a very good herbicidal activity is given at values of at least 85)”. Further, in assay [1] (application rate 500 g/ha), the “herbicidal activity against ECHCG” value is reported as “very good (a very good herbicidal activity is given at values of at least 85)”. The “herbicidal activity against ABUTH” value in assay [3] (application rate 500 g/ha) was “very good (a very good herbicidal activity is given at values of at least 85)”.
As for `CC(C)(F)c1nc(N)nc(Nc2c(F)cccc2Oc2cc(C(F)(F)F)cc(C(F)(F)F)c2)n1` [Example 12], the “herbicidal activity against APESV” value in assay [4] (application rate 0.25 kg/ha) is “very good (a very good herbicidal activity is given at values of at least 85)”. Besides, the “herbicidal activity against SETFA” value in assay [2] (application rate 0.25 kg/ha) is reported as “very good (a very good herbicidal activity is given at values of at least 85)”. Moreover, the “herbicidal activity against AMARE” value in assay [5] (application rate 0.25 kg/ha) is on record as “very good (a very good herbicidal activity is given at values of at least 85)”.
In the case of `CC(C)(F)c1nc(N)nc(Nc2c(F)cccc2Oc2cc(F)cc(F)c2)n1` [Example 24], the “herbicidal activity against APESV” value in assay [4] (application rate 0.25 kg/ha) is “very good (a very good herbicidal activity is given at values of at least 85)”. In assay [1] (application rate 0.25 kg/ha), the “herbicidal activity against ECHCG” value was “very good (a very good herbicidal activity is given at values of at least 85)”. The “herbicidal activity against ABUTH” value in assay [3] (application rate 0.25 kg/ha) is given as “very good (a very good herbicidal activity is given at values of at least 85)”.
